Tests used:
Format in all cases: in vivo
[1] = system: barnyardgrass (Echinochloa crus-galli); test: Test C flooded paddy test; settings: for Barnyardgrass plant response rating: scale 0 to 100, 0 no effect, 100 complete control
Procedure, shortened: (§1)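 Plants were grown to the 2-leaf stage under flooded paddy conditions and treated. They were then kept in a greenhouse for 12 to 14 days and visually rated against untreated controls on a 0–100 scale, where 0 is no effect and 100 is complete control.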

rice (Oryza saliva) [2] = test: Test C flooded paddy test; settings: for Rice plant response rating: scale 0 to 100, 0 no effect, 100 complete control
Procedure, shortened: as §1

[3] = system: duck salad (Heteranthera limosa); test: Test C flooded paddy test; settings: for Ducksalad plant response rating: scale 0 to 100, 0 no effect, 100 complete control
Procedure, shortened: as §1

[4] = system: smallflower flatsedge (Cyperus difformis); test: Test C flooded paddy test; settings: for Flatsedge plant response rating: Flooded Paddy, scale 0 to 100, 0 no effect, 100 complete control; for Plant response rating, Flatsedge: flooded paddy test, scale 0 to 100 (0 no effect, 100 complete control)
Procedure, shortened: as §1

[5] = system: barnyardgrass (Echinochloa crus-galli); test: Test B preemergence
Procedure, shortened: (§2)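 Post-treatment, species sat 13–15 days under greenhouse conditions before visual scoring against controls, 0 (no effect) through 100 (complete control). Application preemergence to sown seeds or postemergence at 1- to 4-leaf stage, using a non-phytotoxic solvent/surfactant formulation.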

[6] = system: giant foxtail (Setaria faberii); test: Test B preemergence
Procedure, shortened: as §2

[7] = system: morning glory (Ipomoea hederacea); test: Test B preemergence
Procedure, shortened: as §2

[8] = system: cocklebur (Xanthium strumarium); test: Test B preemergence
Procedure, shortened: as §2

[9] = system: Surinam grass (Brachiaria decumbens); test: Test B preemergence
Procedure, shortened: as §2

[10] = system: lambsquarters (Chenopodium album); test: Test B preemergence
Procedure, shortened: as §2

corn (Zea mays) [11] = test: Test B preemergence
Procedure, shortened: as §2

[12] = system: crabgrass (Digitaria sanguinalis); test: Test B preemergence
Procedure, shortened: as §2

rice (Oryza saliva) [13] = test: Test B preemergence
Procedure, shortened: as §2

[14] = system: pigweed (Amaranthus retroflexus); test: Test B preemergence; settings: scale 0 to 100, 0 no effect, 100 complete control
Procedure, shortened: as §2

[15] = system: velvetleaf (Abutilon theophrasti); test: Test B preemergence
Procedure, shortened: as §2

[16] = system: barnyardgrass (Echinochloa crus-galli); test: Test B postemergence; settings: 13 to 15 days
Procedure, shortened: as §2

[17] = system: giant foxtail (Setaria faberii); test: Test B postemergence; settings: 13 to 15 days
Procedure, shortened: as §2

[18] = system: morning glory (Ipomoea hederacea); test: Test B postemergence; settings: 13 to 15 days
Procedure, shortened: as §2

[19] = system: cocklebur (Xanthium strumarium); test: Test B postemergence; settings: 13 to 15 days
Procedure, shortened: as §2

[20] = system: Surinam grass (Brachiaria decumbens); test: Test B postemergence; settings: 13 to 15 days
Procedure, shortened: as §2

[21] = system: lambsquarters (Chenopodium album); test: Test B postemergence; settings: 13 to 15 days
Procedure, shortened: as §2

corn (Zea mays) [22] = test: Test B postemergence; settings: 13 to 15 days
Procedure, shortened: as §2

[23] = system: crabgrass (Digitaria sanguinalis); test: Test B postemergence; settings: 13 to 15 days
Procedure, shortened: as §2

[24] = system: pigweed (Amaranthus retroflexus); test: Test B postemergence; settings: 13 to 15 days
Procedure, shortened: as §2

[25] = system: velvetleaf (Abutilon theophrasti); test: Test B postemergence; settings: 13 to 15 days
Procedure, shortened: as §2

wild oat (Avena fatua) = test: Test B postemergence; settings: 13 to 15 days
Procedure, shortened: as §2

[26] = system: blackgrass (Alopecurus myosuroides); test: Test B postemergence; settings: 13 to 15 days
Procedure, shortened: as §2

[27] = system: wheat (Triticum aestivum); test: Test B postemergence; settings: 13 to 15 days
Procedure, shortened: as §2

[28] = system: barnyardgrass (Echinochloa crus-galli); test: Test B flooded paddy test; settings: Rate 1000 g/ha, scale of 0 to 100 where 0 is no effect and 100 is complete control, visually evaluated after 13 to 15 days
Procedure, shortened: (§3)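 Greenhouse-held for 13 to 15 days after treatment at the 2-leaf stage, paddy-grown plants were scored visually against controls on a 0-to-100 control scale; a dash marks no test result.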

rice (Oryza saliva) [29] = test: Test B flooded paddy test; settings: Rate 1000 g/ha, scale of 0 to 100 where 0 is no effect and 100 is complete control, visually evaluated after 13 to 15 days
Procedure, shortened: as §3

[30] = system: duck salad (Heteranthera limosa); test: Test B flooded paddy test; settings: Rate 1000 g/ha, scale of 0 to 100 where 0 is no effect and 100 is complete control, visually evaluated after 13 to 15 days
Procedure, shortened: as §3

[31] = system: smallflower flatsedge (Cyperus difformis); test: Test B flooded paddy test; settings: Rate 1000 g/ha, scale of 0 to 100 where 0 is no effect and 100 is complete control, visually evaluated after 13 to 15 days
Procedure, shortened: as §3

[32] = flooded paddy test, Rate 62 g/ha, scale 0 to 100 (0 no effect, 100 complete control)
[33] = flooded paddy test, Rate 125 g/ha, scale 0 to 100 (0 no effect, 100 complete control)
[34] = Preemergence, Rate 500 g/ha, scale 0 to 100, 0 no effect, 100 complete control
[35] = preemergence, Rate 125 g/ha, scale of 0 to 100 where 0 is no effect and 100 is complete control, 13 to 15 days
[36] = Rate 125 g/ha, scale 0 (no effect) to 100 (complete control)
[37] = Rate 500 g/ha, scale 0 to 100, 0 is no effect, 100 is complete control
[38] = Flooded Paddy, Rate 500 g/ha, scale 0 to 100
[39] = preemergence, Rate 125 g/ha, scale 0 to 100, 0 no effect, 100 complete control

SMILES: CC(C)(C)c1ccn(C2CCN(c3cc(Cl)cc(Cl)c3)C2=O)n1 (centres unmarked) [Compound 55]
- Barnyardgrass plant response rating ([1]; Flooded Paddy, Rate 250 g/ha): 100
- Barnyardgrass plant response rating ([1]; Flooded Paddy, Rate 500 g/ha): 100
- Plant response rating, Barnyardgrass [1, 32]: 0
- Plant response rating, Barnyardgrass [1, 33]: 50
- Rice plant response rating (rice (Oryza saliva) [2]; Flooded Paddy, Rate 250 g/ha): 0
- Rice plant response rating (rice (Oryza saliva) [2]; Flooded Paddy, Rate 500 g/ha): 0
- Plant response rating, Rice (rice (Oryza saliva) [2]; [32]): 0
- Plant response rating, Rice (rice (Oryza saliva) [2]; [33]): 0
- Ducksalad plant response rating ([3]; Flooded Paddy, Rate 250 g/ha): 50
- Ducksalad plant response rating ([3]; Flooded Paddy, Rate 500 g/ha): 50
- Plant response rating, Ducksalad [3, 32]: 0
- Plant response rating, Ducksalad [3, 33]: 40
- Flatsedge plant response rating ([4]; Rate 250 g/ha): 90
- Flatsedge plant response rating ([4]; Rate 500 g/ha): 100
- Plant response rating, Flatsedge ([4]; Rate 62 g/ha): 40
- Plant response rating, Flatsedge ([4]; Rate 125 g/ha): 90
- Plant response rating, Barnyardgrass [5, 34]: 0
- Plant response rating, Barnyardgrass [5, 35]: 0
- Plant response rating, Foxtail, Giant [6, 34]: 0
- Plant response rating, Foxtail, Giant [6, 35]: 0
- Plant response rating, Morningglory [7, 34]: 0
- Plant response rating, Morningglory [7, 35]: 0
- Plant response rating, Cocklebur [8, 35]: 0
- Plant response rating, Surinam grass [9, 34]: 0
- Plant response rating, Surinam grass [9, 35]: 0
- Plant response rating, Lambsquarters [10, 34]: 0
- Plant response rating, Lambsquarters [10, 35]: 0
- Plant response rating, Corn (corn (Zea mays) [11]; [34]): 0
- Plant response rating, Corn (corn (Zea mays) [11]; [35]): 0
- Plant response rating, Crabgrass [12, 34]: 0
- Plant response rating, Crabgrass [12, 35]: 0
- Plant response rating, Rice (rice (Oryza saliva) [13]; [34]): 0
- Plant response rating, Rice (rice (Oryza saliva) [13]; [35]): 0
- Plant response rating, Pigweed ([14]; Preemergence, Rate 500 g/ha): 0
- Plant response rating, Velvetleaf [15, 34]: 0
- Plant response rating, Velvetleaf [15, 35]: 0
- Plant response rating, Barnyardgrass [16, 36]: 0
- Plant response rating, Barnyardgrass [16, 37]: 0
- Plant response rating, Foxtail, Giant [17, 36]: 0
- Plant response rating, Foxtail, Giant [17, 37]: 0
- Plant response rating, Morningglory [18, 36]: 0
- Plant response rating, Morningglory [18, 37]: 30
- Plant response rating, Cocklebur [19, 36]: 10
- Plant response rating, Cocklebur [19, 37]: 10
- Plant response rating, Surinam grass [20, 36]: 0
- Plant response rating, Surinam grass [20, 37]: 0
- Plant response rating, Lambsquarters [21, 36]: 0
- Plant response rating, Lambsquarters [21, 37]: 0
- Plant response rating, Corn (corn (Zea mays) [22]; [36]): 0
- Plant response rating, Corn (corn (Zea mays) [22]; [37]): 0
- Plant response rating, Crabgrass [23, 36]: 0
- Plant response rating, Crabgrass [23, 37]: 0
- Plant response rating, Pigweed [24, 36]: 0
- Plant response rating, Pigweed [24, 37]: 0
- Plant response rating, Velvetleaf [25, 36]: 0
- Plant response rating, Velvetleaf [25, 37]: 0
- Plant response rating, Wild Oat (wild oat (Avena fatua); [36]): 0
- Plant response rating, Wild Oat (wild oat (Avena fatua); [37]): 0
- Plant response rating, Blackgrass [26, 36]: 0
- Plant response rating, Blackgrass [26, 37]: 0
- Plant response rating, Wheat [27, 36]: 0
- Plant response rating, Wheat [27, 37]: 0
- Plant response rating, Barnyardgrass [28]: 100
- Plant response rating, Rice (rice (Oryza saliva) [29]): 0
- Plant response rating, Ducksalad [30]: 80
- Plant response rating, Flatsedge [31]: 100

SMILES: Cc1ccn(C2SCN(c3cccc(C(F)(F)F)c3)C2=O)n1 (centres unmarked) [Compound 19]
- Plant response rating, Barnyardgrass [1, 38]: 0
- Barnyardgrass plant response rating ([1]; Flooded Paddy, Rate 250 g/ha): 0
- Plant response rating, Barnyardgrass [1, 32]: 0
- Plant response rating, Barnyardgrass [1, 33]: 0
- Plant response rating, Rice (rice (Oryza saliva) [2]; [38]): 0
- Rice plant response rating (rice (Oryza saliva) [2]; Flooded Paddy, Rate 250 g/ha): 0
- Plant response rating, Rice (rice (Oryza saliva) [2]; [32]): 0
- Plant response rating, Rice (rice (Oryza saliva) [2]; [33]): 0
- Plant response rating, Ducksalad [3, 38]: 0
- Ducksalad plant response rating ([3]; Flooded Paddy, Rate 250 g/ha): 0
- Plant response rating, Ducksalad [3, 32]: 0
- Plant response rating, Ducksalad [3, 33]: 0
- Flatsedge plant response rating ([4]; Rate 250 g/ha): 0
- Flatsedge plant response rating ([4]; Rate 500 g/ha): 30
- Plant response rating, Flatsedge ([4]; Rate 62 g/ha): 0
- Plant response rating, Flatsedge ([4]; Rate 125 g/ha): 0
- Plant response rating, Barnyardgrass [5, 34]: 0
- Plant response rating, Barnyardgrass [5, 39]: 0
- Plant response rating, Foxtail, Giant [6, 34]: 0
- Plant response rating, Foxtail, Giant [6, 39]: 0
- Plant response rating, Morningglory [7, 34]: 0
- Plant response rating, Morningglory [7, 39]: 0
- Plant response rating, Cocklebur [8, 34]: 0
- Plant response rating, Cocklebur [8, 39]: 0
- Plant response rating, Surinam grass [9, 34]: 20
- Plant response rating, Surinam grass [9, 39]: 0
- Plant response rating, Lambsquarters [10, 34]: 60
- Plant response rating, Lambsquarters [10, 39]: 0
- Plant response rating, Corn (corn (Zea mays) [11]; [34]): 0
- Plant response rating, Corn (corn (Zea mays) [11]; [39]): 0
- Plant response rating, Crabgrass [12, 34]: 0
- Plant response rating, Crabgrass [12, 39]: 0
- Plant response rating, Rice (rice (Oryza saliva) [13]; [34]): 0
- Plant response rating, Rice (rice (Oryza saliva) [13]; [39]): 0
- Plant response rating, Pigweed ([14]; Preemergence, Rate 500 g/ha): 0
- Plant response rating, Pigweed ([14]; preemergence, Rate 125 g/ha): 0
- Plant response rating, Velvetleaf [15, 34]: 0
- Plant response rating, Velvetleaf [15, 39]: 0
- Plant response rating, Barnyardgrass [16, 36]: 0
- Plant response rating, Barnyardgrass [16, 37]: 0
- Plant response rating, Foxtail, Giant [17, 36]: 0
- Plant response rating, Foxtail, Giant [17, 37]: 0
- Plant response rating, Morningglory [18, 36]: 20
- Plant response rating, Morningglory [18, 37]: 30
- Plant response rating, Cocklebur [19, 36]: 20
- Plant response rating, Cocklebur [19, 37]: 20
- Plant response rating, Surinam grass [20, 36]: 0
- Plant response rating, Surinam grass [20, 37]: 10
- Plant response rating, Lambsquarters [21, 36]: 10
- Plant response rating, Lambsquarters [21, 37]: 70
- Plant response rating, Corn (corn (Zea mays) [22]; [36]): 0
- Plant response rating, Corn (corn (Zea mays) [22]; [37]): 0
- Plant response rating, Crabgrass [23, 36]: 0
- Plant response rating, Crabgrass [23, 37]: 20
- Plant response rating, Pigweed [24, 36]: 0
- Plant response rating, Pigweed [24, 37]: 0
- Plant response rating, Velvetleaf [25, 36]: 10
- Plant response rating, Velvetleaf [25, 37]: 20
- Plant response rating, Wild Oat (wild oat (Avena fatua); [36]): 0
- Plant response rating, Wild Oat (wild oat (Avena fatua); [37]): 0
- Plant response rating, Blackgrass [26, 36]: 0
- Plant response rating, Blackgrass [26, 37]: 0
- Plant response rating, Wheat [27, 36]: 0
- Plant response rating, Wheat [27, 37]: 0
- Plant response rating, Barnyardgrass [28]: 60
- Plant response rating, Rice (rice (Oryza saliva) [29]): 0
- Plant response rating, Ducksalad [30]: 80
- Plant response rating, Flatsedge [31]: 90

Reference: US7138361B2, “Herbicidal heterocycles” (E. I. du Pont de Nemours and Company, priority 2000, dated 2006)
